This is an account of results in publication PMC7076710, “Synthesis, Identification, and Structure–Activity Relationship Analysis of GATA4 and NKX2-5 Protein–Protein Interaction Modulators” (Journal of Medicinal Chemistry, 2019).

Holding throughout (format): cell-based
Series [1] addresses T1, GATA4 transcriptional activity (Mus musculus, UniProt Q08369).
T1 construct: expressed in transfected cells; host or cells: COS-1
The series can be described thus: GATA4 luciferase reporter assay (tandem GATA-site reporter, COS-1 cells). As to conditions: COS-1, luciferase reporter activity relative to control. Background: In a reporter assay the amount or activity of a reporter protein is the signal.

The target of series [2] is T2, GATA4–NKX2-5 transcriptional synergy (Mus musculus, UniProt P42582+Q08369).
T2 construct: expressed in transfected cells; host or cells: COS-1
Briefly: GATA4–NKX2-5 transcriptional synergy luciferase reporter assay (3xNKE reporter, COS-1 cells). As to conditions: COS-1, luciferase reporter activity relative to control.

Series [3] has as its system rat BNP promoter activity in neonatal rat ventricular myocytes. The series can be described thus: BNP promoter luciferase reporter in neonatal cardiomyocytes with or without endothelin-1. The protocol: Five compounds (GATA4–NKX2-5 synergy inhibitors 1, 61, and 65; the synergy activator 2; and the NKX2-5 activity inhibitor 47c) were selected for studies in neonatal cardiomyocytes, which were treated with endothelin-1 (ET-1), a well-established hypertrophic agonist that activates the gene expression of both ANP and BNP (Figure 4). The myocytes were transfected with construct containing −534/+4 proximal region of rat BNP promoter with GATA4 and NKX2-5 binding sites in front of luciferase before exposure to compounds and ET-1, which was added 1 h after the compounds.
Figure 4 Effects of the compounds 1, 2, 47c, 61, and 65 on BNP gene activation in cardiomyocytes. Neonatal cardiomyocytes were transfected with rat BNP luciferase reporter for 24 h. The cells were exposed to compounds and 1 h later to endothelin-1 (ET-1) for 24 h. The results are expressed as +SD (n = 3 or 9 for DMSO groups). ***P < 0.001 vs DMSO; **P < 0.01 vs DMSO; *P < 0.05 vs DMSO (one-way ANOVA followed by Tukey’s HSD or Welch ANOVA followed by Games–Howell); ^###P < 0.001 vs DMSO, no stimulus (independent samples Student’s t test).
The plasmids expressing mouse GATA4 protein, pMT2-GATA4, and empty pMT2 were gifts from D. B. Wilson (Department of Pediatrics, St. Louis Children’s Hospital, St. Louis, MO).[44] The plasmids expressing mouse NKX2-5 protein, pMT2-NKX2-5, have been described earlier.[28] The luciferase reporter plasmid used in GATA4–NKX2-5 transcriptional synergy assay and NKX transcriptional assay, pGL3-3xHA, contains three high affinity binding sites for NKX2-5.[28] The luciferase reporter plasmid used in GATA transcriptional assay, NP-112, contains tandem GATA-sites and minimal promoter of rat brain natriuretic peptide (BNP) gene.[45] The pGL3-BNP luciferase reporter containing −534/+4 bp rat BNP proximal promoter described previously was used in hypertrophy assay.[46]
The neonatal rat ventricular myocytes were isolated from 2- to 3-day-old Wistar rats, as described earlier.[29],[32] Rat pups were acquired from the experimental animal facility of the University of Helsinki with an internal use license (KEK17-012). Animals were housed in standard conditions, and their handling and all procedures were carried out in accordance with University of Helsinki institutional guidelines, which conform to the National Research Council (U.S.) Guide for the Care and Use of Laboratory Animals.[47] The cells were seeded at 50 000 cells/well in Isoplate-96 microplates (PerkinElmer, Turku, Finland) and cultured for 18–20 h with Dulbecco’s modified Eagle medium (DMEM)/F12 culture medium containing 2.5 mM L-glutamine, supplemented with 100 IU/mL penicillin–streptomycin and 10% fetal bovine serum (all from Gibco, Thermo Scientific). Transfections were carried out for 24 h in serum free media (CSFM; DMEM/F12, 2.5 mg/mL bovine serum albumin, 1 μM insulin, 2.5 mM L-glutamine, 32 nM selenium, 2.8 mM sodium pyruvate, 5.64 μg/mL transferrin, 1 nM T3, and 100 IU/mL PS) by using 100 ng of pGL3-BNP luciferase plasmid per well in a 1:3 ratio of DNA/transfection reagent (Fugene 6, Promega). […] After 24 h, the luminescence was measured as above.
Results from cardiomyocyte experiments are expressed as mean + SD from at least three independent experiments. Data were analyzed using IBM SPSS Statistics 24 software. […] Significance between ET-1 and DMSO samples was analyzed with independent samples Student’s t test. […]

Series [4] deals with T3, NKX2-5 transcriptional activity (Mus musculus, UniProt P42582).
T3 construct: expressed in transfected cells; host or cells: COS-1
The series can be described thus: NKX2-5 luciferase reporter assay (3xNKE reporter, COS-1 cells). To be noted: COS-1, luciferase reporter activity relative to control; for activity at 3 µM: read-out: NKX.3µM; for activity at 10 µM: read-out: NKX.10µM.

Series [5] has as its system COS-1 cells. Briefly: MTT assay (cell viability). To be noted: cell viability. (In general: Tetrazolium assays rely on reduction of a dye to a coloured formazan, in cell work by metabolically active cells.)
Series [6] deals with COS-1 cells. The series can be described thus: LDH assay (necrosis).

Where two headings read alike, the source gives them in different places.

T3 sequence (P42582 whole entry): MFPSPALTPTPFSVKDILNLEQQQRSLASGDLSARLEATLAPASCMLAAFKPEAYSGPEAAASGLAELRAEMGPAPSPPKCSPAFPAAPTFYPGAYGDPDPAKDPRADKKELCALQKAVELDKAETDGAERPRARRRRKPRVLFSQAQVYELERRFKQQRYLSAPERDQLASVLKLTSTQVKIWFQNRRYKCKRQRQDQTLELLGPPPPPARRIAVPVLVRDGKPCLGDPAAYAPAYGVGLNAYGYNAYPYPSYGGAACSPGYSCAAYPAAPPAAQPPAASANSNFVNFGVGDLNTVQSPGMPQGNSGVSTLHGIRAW
T2 sequence (Q08369 whole entry): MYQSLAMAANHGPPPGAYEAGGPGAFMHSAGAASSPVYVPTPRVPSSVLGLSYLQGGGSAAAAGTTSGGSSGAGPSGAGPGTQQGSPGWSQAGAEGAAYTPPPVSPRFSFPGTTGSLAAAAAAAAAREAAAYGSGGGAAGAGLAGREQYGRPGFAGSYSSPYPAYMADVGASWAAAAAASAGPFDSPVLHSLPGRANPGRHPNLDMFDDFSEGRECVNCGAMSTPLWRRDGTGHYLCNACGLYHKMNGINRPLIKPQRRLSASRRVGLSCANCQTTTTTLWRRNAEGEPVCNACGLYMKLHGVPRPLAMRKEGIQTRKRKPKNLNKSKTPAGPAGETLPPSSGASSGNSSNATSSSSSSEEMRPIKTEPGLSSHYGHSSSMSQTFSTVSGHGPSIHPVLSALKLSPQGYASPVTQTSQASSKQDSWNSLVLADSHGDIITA
T2 sequence (P42582 whole entry): as the sequence (P42582 whole entry) above
T1 sequence (Q08369 whole entry): as the sequence (Q08369 whole entry) above

On to `CCN(c1ccc(NC(=O)c2cnsc2)cc1)C(C)C` [Compound 61], for which the activity at 3 µM worked out at 71.1% in series [1] (compound 3 µM), 28.8% in series [2] (compound 3 µM) and 38.2% in series [4] (compound 3 µM). Also, the activity at 10 µM amounted to 20.4% in series [1] (compound 10 µM), 11.6% in series [2] (compound 10 µM) and 10.7% in series [4] (compound 10 µM). In series [3] (30 μM, ET-1 added 1 h after compound), the “inhibition of the ET-1 hypertrophic response, BNP gene activity (in words)” value is “the most potent inhibitor of the hypertrophic response”. Also, the “effect on BNP promoter activity in cardiomyocytes (in words)” value in series [3] (neonatal cardiomyocytes, 24 h) was “most strongly inhibited the BNP promoter activity”.
`Cc1onc(-c2ccccc2)c1C(=O)Nc1ccc(OCc2ccccc2)cc1` [SI8]: in series [5], the MTT.1µM is 105.45, the MTT.3µM was 102.65, the MTT.10µM is on record as 100.93 and the MTT.30µM came to 59.22. Also, in series [6], the LDH.1µM is -0.14, the LDH.3µM was found to be 2.05, the LDH.10µM was -0.31 and the LDH.30µM is 1.97. Also, the activity at 3 µM in series [1] (3 µM) was found to be 104%. For the same compound, the activity at 10 µM in series [1] (10 µM) was determined as 83.8%. Also, in series [2] (3 µM), the activity at 3 µM was found to be 86.4%. Also, the activity at 10 µM in series [2] (10 µM) came to 71.9%. Also, the activity at 3 µM in series [4] (3 µM) is 84.9%. Further, the activity at 10 µM in series [4] (10 µM) was 72.2%.
As to `CCN(CC)c1ccc(/C=N/c2c(-c3ccccc3)noc2C)c(O)c1` [SI44], in series [5], the MTT.1µM is 105.22, the MTT.3µM stood at 100.5, the MTT.10µM was determined as 90.69 and the MTT.30µM amounted to 89.22. Moreover, in series [6], the LDH.1µM amounted to 2.83, the LDH.3µM is 1.4, the LDH.10µM was -0.96 and the LDH.30µM came out at 0.36. Moreover, in series [1] (3 µM), the activity at 3 µM was 107%. For the same compound, in series [1] (10 µM), the activity at 10 µM stood at 74.1%. Moreover, in series [2] (3 µM), the activity at 3 µM was 84.8%. Further, the activity at 10 µM in series [2] (10 µM) worked out at 53.2%. In addition, the activity at 3 µM in series [4] (3 µM) came to 99.9%. Further, the activity at 10 µM in series [4] (10 µM) was found to be 53.9%.
For the compound `CCCn1nnc(-c2ccccc2)c1C(=O)Nc1ccc(N(CC)CC)cc1` [SI65], in series [5], the MTT.1µM worked out at 101.13, the MTT.3µM was 112.84, the MTT.10µM was determined as 109.58 and the MTT.30µM was determined as 105.89. In series [6], this compound showed an LDH.1µM of 2.51, an LDH.3µM of 1.17, an LDH.10µM of 1.55 and an LDH.30µM of 2.48. For the same compound, the activity at 3 µM in series [1] (3 µM) was found to be 113%. In series [1] (10 µM), the activity at 10 µM was 97.4%. In addition, the activity at 3 µM in series [2] (3 µM) came out at 104%. The activity at 10 µM in series [2] (10 µM) is 96.1%. Moreover, in series [4] (3 µM), the activity at 3 µM stood at 115%. Further, the activity at 10 µM in series [4] (10 µM) came to 91.1%.
`CN(C)c1ccc(NCc2c[nH]nc2-c2ccc(F)cc2)cc1` [SI78]: in series [5], the MTT.1µM was found to be 105.6, the MTT.3µM came out at 102.53, the MTT.10µM was 103.53 and the MTT.30µM is 103.47. In series [6], this compound returned an LDH.1µM of 0.7, an LDH.3µM of 1, an LDH.10µM of -1.06 and an LDH.30µM of -2.54. Besides, the activity at 3 µM in series [1] (3 µM) was found to be 83.7%. The activity at 10 µM in series [1] (10 µM) came to 49.1%. The activity at 3 µM in series [2] (3 µM) is 67.2%. The activity at 10 µM in series [2] (10 µM) was 42.2%. Also, the activity at 3 µM in series [4] (3 µM) amounted to 70.7%. In addition, the activity at 10 µM in series [4] (10 µM) turned out to be 43%.
Take `CCN(CC)c1ccc(NCc2c[nH]nc2-c2cc(F)cc(F)c2)cc1` [SI79]: in series [5], the MTT.1µM came out at 101.61, the MTT.3µM worked out at 103.16, the MTT.10µM is given as 104.94 and the MTT.30µM amounted to 103.16. In addition, in series [6], the LDH.1µM is 2.87, the LDH.3µM is 1.38, the LDH.10µM is given as -0.15 and the LDH.30µM is -0.35. The activity at 3 µM in series [1] (3 µM) was determined as 92.7%. In addition, the activity at 10 µM in series [1] (10 µM) stood at 78.5%. For the same compound, the activity at 3 µM in series [2] (3 µM) is 98.9%. In addition, the activity at 10 µM in series [2] (10 µM) is 92.2%. Also, in series [4] (3 µM), the activity at 3 µM stood at 88.7%. In series [4] (10 µM), the activity at 10 µM came out at 71.4%.
With `CCN(CC)c1ccc(NC(=O)c2ccnn2-c2ccccc2)cc1` [SI88], in series [5], the MTT.1µM is 105.89, the MTT.3µM is reported as 89.83, the MTT.10µM is recorded as 83.67 and the MTT.30µM was 88.35. In series [6], this compound registered an LDH.1µM of 2.08, an LDH.3µM of -0.13, an LDH.10µM of 0.07 and an LDH.30µM of -1.27. In addition, the activity at 3 µM in series [1] (3 µM) is 92.3%. Also, the activity at 10 µM in series [1] (10 µM) turned out to be 61.8%. Moreover, in series [2] (3 µM), the activity at 3 µM was found to be 62.4%. Besides, the activity at 10 µM in series [2] (10 µM) amounted to 52.7%. Further, the activity at 3 µM in series [4] (3 µM) came out at 75.3%. Also, the activity at 10 µM in series [4] (10 µM) stood at 60.7%.
Consider `CCN(CC)c1ccc(NC(=O)c2c[nH]nc2-c2ccccc2)cc1` [SI89], for which, in series [5], the MTT.1µM worked out at 100.37, the MTT.3µM amounted to 105.87, the MTT.10µM worked out at 100.53 and the MTT.30µM is 96.92. In series [6], this compound displayed an LDH.1µM of 2.32, an LDH.3µM of 1.68, an LDH.10µM of 1.11 and an LDH.30µM of -1.15. Moreover, in series [1] (3 µM), the activity at 3 µM amounted to 103%. Also, in series [1] (10 µM), the activity at 10 µM turned out to be 81.8%. The activity at 3 µM in series [2] (3 µM) worked out at 80.7%. Moreover, the activity at 10 µM in series [2] (10 µM) turned out to be 93.5%. In series [4] (3 µM), the activity at 3 µM came to 101%. Also, the activity at 10 µM in series [4] (10 µM) was 89%.
In series [5], `COc1ccc(-c2cc(N)nn2C(=O)c2c(-c3ccccc3)noc2C)cc1` [SI137, [3-Amino-5-(4-methoxyphenyl)-1H-pyrazol-1-yl] (5-methyl-3-phenylisoxazol-4-yl) methanone] came in with an MTT.1µM of 100.57, an MTT.3µM of 105.12, an MTT.10µM of 104.9 and an MTT.30µM of 96.15. In series [6], the LDH.1µM was 3.49, the LDH.3µM is given as 2.98, the LDH.10µM is on record as 0.2 and the LDH.30µM was -2.71. In addition, the activity at 3 µM in series [1] (3 µM) amounted to 85.3%. The activity at 10 µM in series [1] (10 µM) amounted to 76.5%. Moreover, the activity at 3 µM in series [2] (3 µM) stood at 90.6%. Besides, in series [2] (10 µM), the activity at 10 µM stood at 72.1%. The activity at 3 µM in series [4] (3 µM) turned out to be 88%. Moreover, the activity at 10 µM in series [4] (10 µM) turned out to be 65.2%.
With “ET-1: endothelin-1, a well-established hypertrophic agonist that activates the gene expression of both ANP and BNP [reference compound]”, the “increase in BNP gene activity” value in series [3] (neonatal cardiomyocytes, 24 h) is approximately 3 fold.
